Literature values, collected in PubChem BioAssay AID1259409 (Chemical Carcinogenesis Research Information System (CCRIS), 2018).

Test system: rodent chemically induced tumor inhibition, incidence and multiplicity
Assay: CCRIS tumor inhibitor studies

## COc1cc(/C=C/C(=O)CC(=O)/C=C/c2ccc(O)c(OC)c2)ccc1O
Carcinogen: BENZO[A]PYRENE, 50-32-8, Dose [Inhibitor]: 0, 10 UMOL IN ACETONE APPLIED 120, 60 AND 5 MIN PRIOR TO CARCINOGEN DOSE (STUDY DURATION: 24 WK), Route [Inhibitor]: DERMAL, Species: MOUSE, Strain/Sex: CD-1/FEMALE, Target Tissue: Type of Lesion: SKIN: TUMORS, Dose [Carcinogen]: 200 NMOL ONCE, Promoter: 12-O-TETRADECANOYLPHORBOL-13-ACETATE, 16561-29-8
  tumour outcome (control, treated, inhibition, significance): 96%, 77%, 20%, not calculated
Carcinogen: METHYL(ACETOXYMETHYL)NITROSAMINE, 56856-83-8, Dose [Inhibitor]: 0, 5% IN DIET FOR DURATION OF STUDY BEGINNING 2 WK PRIOR TO CARCINOGEN TREATMENT (STUDY DURATION: 13 MO), Route [Inhibitor]: ORAL, Species: HAMSTER, Strain/Sex: SYRIAN/FEMALE, Target Tissue: Type of Lesion: ORAL: CAVITY, Dose [Carcinogen]: 2 MG/KG BW APPLIED TO RIGHT CHEEK POUCH 2/MO FOR 6 MO, Promoter: NONE USED
  tumour outcome (control, treated, inhibition, significance): 14/15 (93%), 3/16 (19%), 80%, p<0.001
Carcinogen: N-ETHYL-N'-NITRO-N-NITROSOGUANDINDE, 4245-77-6, Dose [Inhibitor]: 0, 1% COMMERCIAL GRADE CURCUMIN IN DIET FOR 16 WK BEGINNING 1 WK POST CARCINOGEN TREATMENT (STUDY DURATION: 20 WK), Route [Inhibitor]: ORAL, Species: MOUSE, Strain/Sex: C57BL/MALE, Target Tissue: Type of Lesion: DUODENUM: ADENOMA, Dose [Carcinogen]: 120 MG/L IN DRINKING WATER FOR 4 WK, Promoter: NONE USED
  tumour outcome (control, treated, inhibition, significance): 45%, 28%, 38%, not significant
Carcinogen: N-ETHYL-N'-NITRO-N-NITROSOGUANIDINE, 4245-77-6, Dose [Inhibitor]: 0, 0.5% COMMERCIAL GRADE CURCUMIN IN DIET FOR 16 WK BEGINNING 1 WK POST CARCINOGEN TREATMENT (STUDY DURATION: 20 WK), Route [Inhibitor]: ORAL, Species: MOUSE, Strain/Sex: C57BL/MALE, Target Tissue: Type of Lesion: DUODENUM: ADENOCARCINOMA, Dose [Carcinogen]: 120 MG/L IN DRINKING WATER FOR 4 WK, Promoter: NONE USED
  tumour outcome (control, treated, inhibition, significance): 6%, 4%, 33%, not significant
Carcinogen: N-ETHYL-N'-NITRO-N-NITROSOGUANIDINE, 4245-77-6, Dose [Inhibitor]: 0, 0.5% COMMERCIAL GRADE CURCUMIN IN DIET FOR 16 WK BEGINNING 1 WK POST CARCINOGEN TREATMENT (STUDY DURATION: 20 WK), Route [Inhibitor]: ORAL, Species: MOUSE, Strain/Sex: C57BL/MALE, Target Tissue: Type of Lesion: DUODENUM: ADENOMA, Dose [Carcinogen]: 120 MG/L IN DRINKING WATER FOR 4 WK, Promoter: NONE USED
  tumour outcome (control, treated, inhibition, significance): 45%, 20%, 56%, not significant
Carcinogen: N-ETHYL-N'-NITRO-N-NITROSOGUANIDINE, 4245-77-6, Dose [Inhibitor]: 0, 1% COMMERCIAL GRADE CURCUMIN IN DIET FOR 16 WK BEGINNING 1 WK POST CARCINOGEN TREATMENT (STUDY DURATION: 20 WK), Route [Inhibitor]: ORAL, Species: MOUSE, Strain/Sex: C57BL/MALE, Target Tissue: Type of Lesion: DUODENUM: ADENOCARCINOMA, Dose [Carcinogen]: 120 MG/L IN DRINKING WATER FOR 4 WK, Promoter: NONE USED
  tumour outcome (control, treated, inhibition, significance): 6%, 4%, 33%, not significant
Carcinogen: N-ETHYL-N'-NITRO-N-NITROSOGUANIDINE, 4245-77-6, Dose [Inhibitor]: 0, 2% COMMERCIAL GRADE CURCUMIN IN DIET FOR 16 WK BEGINNING 1 WK POST CARCINOGEN TREATMENT (STUDY DURATION: 20 WK), Route [Inhibitor]: ORAL, Species: MOUSE, Strain/Sex: C57BL/MALE, Target Tissue: Type of Lesion: DUODENUM: ADENOCARCINOMA, Dose [Carcinogen]: 120 MG/L IN DRINKING WATER FOR 4 WK, Promoter: NONE USED
  tumour outcome (control, treated, inhibition, significance): 6%, 5%, 17%, not significant
Carcinogen: N-ETHYL-N'-NITRO-N-NITROSOGUANIDINE, 4245-77-6, Dose [Inhibitor]: 0, 2% COMMERCIAL GRADE CURCUMIN IN DIET FOR 16 WK BEGINNING 1 WK POST CARCINOGEN TREATMENT (STUDY DURATION: 20 WK), Route [Inhibitor]: ORAL, Species: MOUSE, Strain/Sex: C57BL/MALE, Target Tissue: Type of Lesion: DUODENUM: ADENOMA, Dose [Carcinogen]: 120 MG/L IN DRINKING WATER FOR 4 WK, Promoter: NONE USED
  tumour outcome (control, treated, inhibition, significance): 45%, 27%, 40%, not significant
Carcinogen: N-METHYL-N'-NITRO-N-NITROSOGUANIDINE, 70-25-7, Route [Inhibitor]: 0, 0.05% IN DIET FOR 55 WK BEGINNING IMMEDIATELY POST-CARCINOGEN TREATMENT, THEN SWITCHED TO BASAL DIET FOR 4 WK (STUDY, Species: RAT, Strain/Sex: WISTAR/MALE, Target Tissue: Type of Lesion: GLANDULAR STOMACH: ADENOCARCINOMA, Dose [Carcinogen]: 100 PPM IN DRINKING WATER FOR 8 WK, Promoter: SODIUM CHLORIDE, 7647-14-5
  tumour outcome (control, treated, inhibition, significance): 1/29 (3%), 2/29 (7%), -133%, not significant
Carcinogen: N-METHYL-N'-NITRO-N-NITROSOGUANIDINE, 70-25-7, Route [Inhibitor]: 0, 0.2% IN DIET FOR 55 WK BEGINNING IMMEDIATELY POST-CARCINOGEN TREATMENT, THEN SWITCHED TO BASAL DIET FOR 4 WK (STUDY D, Species: RAT, Strain/Sex: WISTAR/MALE, Target Tissue: Type of Lesion: GLANDULAR STOMACH: ADENOCARCINOMA, Dose [Carcinogen]: 100 PPM IN DRINKING WATER FOR 8 WK, Promoter: SODIUM CHLORIDE, 7647-14-5
  tumour outcome (control, treated, inhibition, significance): 1/29 (3%), 2/30 (7%), -133%, not significant
Carcinogen: NONE USED, Dose [Inhibitor]: 0, 2% IN DIET FROM 12 MO OF AGE (STUDY DURATION: 15 MO), Route [Inhibitor]: ORAL, Species: MOUSE, Strain/Sex: C3H/FEMALE, Target Tissue: Type of Lesion: MAMMARY GLAND: TUMOR, Promoter: NONE USED
  tumour outcome (control, treated, inhibition, significance): 12/20 (60%), 8/18 (44%), 27%, not calculated
Carcinogen: NONE USED, Dose [Inhibitor]: 0, 5% IN DIET FROM 6 MO OF AGE (STUDY DURATION: 15 MO), Route [Inhibitor]: ORAL, Species: MOUSE, Strain/Sex: C3H/FEMALE, Target Tissue: Type of Lesion: MAMMARY GLAND: TUMOR, Promoter: NONE USED
  tumour outcome (control, treated, inhibition, significance): 12/20 (60%), 0/15 (0%), 100%, not calculated
Carcinogen: NONE USED, Dose [Inhibitor]: 0, 5% IN DIET FROM 8 MO OF AGE (STUDY DURATION: 15 MO), Route [Inhibitor]: ORAL, Species: MOUSE, Strain/Sex: C3H/FEMALE, Target Tissue: Type of Lesion: MAMMARY GLAND: TUMOR, Promoter: NONE USED
  tumour outcome (control, treated, inhibition, significance): 12/20 (60%), 7/21 (33%), 45%, not calculated
Carcinogen: NONE USED, Dose [Inhibitor]: O, 5% IN DIET FROM 12 MO OF AGE (STUDY DURATION: 15 MO), Route [Inhibitor]: ORAL, Species: MOUSE, Strain/Sex: C3H/FEMALE, Target Tissue: Type of Lesion: MAMMARY GLAND: TUMOR, Promoter: NONE USED
  tumour outcome (control, treated, inhibition, significance): 12/20 (60%), 5/17 (29%), 52%, not calculated
